Results from article PMC7586797, “Phase 1 Study to Evaluate the Effect of the Investigational Anticancer Agent Sapanisertib on the QTc Interval in Patients With Advanced Solid Tumors” (Clinical Pharmacology in Drug Development, 2020).

What was measured:
[1] = test system: patients with advanced solid tumors; assay: Safety: adverse events (NCI CTCAE v4.03); format: in vivo, human
Experimental: On cycle 1 day 1, triplicate ECGs and plasma samples for PK were collected from patients ≤15 minutes prior to dosing and at 15 minutes; 30 minutes; and 1‐, 1.5‐, 2‐, 2.5‐, 3‐, 4‐, 6‐, 8‐, and 10‐hour time points after receiving a single oral dose of 40‐mg sapanisertib. The Holter recorders and ECG leads were removed from patients after collection of the 10‐hour time point ECG on day 1, following which patients were furloughed from site. Additional collections of ECGs and plasma samples for PK were conducted at 24 (cycle 1 day 2) and 48 hours (cycle 1 day 3) after dosing. After the first week, that is, cycle 1 day 8, patients had the option to continue to receive treatment with sapanisertib at a dose of 30 mg once weekly in continuous 28‐day cycles until disease progression, unacceptable toxicity, withdrawal of consent, or completion of the 12‐month maximum study duration.
PK parameters were calculated by noncompartmental methods using WinNonLin Professional version 6.1 (Certara, Princeton, New Jersey). The PK analysis population was defined as all patients who received at least 1 dose of sapanisertib and had sufficient concentration‐time data to calculate ≥1 PK parameters. The safety population included all patients who received ≥1 dose of sapanisertib, according to the National Cancer Institute Common Terminology Criteria for Adverse Events, version 4.03.

[2] = parameters: method as in data on file; details: in vitro; ref data on file; cited from earlier work
[3] = parameters: method as in Takeda, data on file; details: human hepatocytes; ref Takeda, data on file; cited from earlier work

## CC(C)n1nc(-c2ccc3oc(N)nc3c2)c2c(N)ncnc21 [sapanisertib]
[1]; N = 44, neither death considered related to study drug
  Patients who died during the study: Two
[1]; human, in vivo
  AE of special interest: asthenic conditions: 61%
  AE of special interest: hyperglycemia: 18%
  AE of special interest: mucosal inflammation: 25%
  AE of special interest: rash: 20%
  AE of special interest: renal insufficiency: 5%
  Dehydration, grade ≥3: 5%
  Diarrhea, grade ≥3: 5%
  Fatigue, any grade: 61%
  Fatigue, grade ≥3: 16%
  Hyperglycemia, grade ≥3: 5%
  Nausea, any grade: 80%
  Patients who experienced adverse events: 98%
  Patients with grade ≥3 AEs: 59%
  Stomatitis, grade ≥3: 5%
  Vomiting, any grade: 57%
[1]; in vivo
  Patients who discontinued study due to AEs: Four
[2]
  Bound to human plasma proteins: 70.5%
[3]
  Share of hepatic metabolism mediated by cytochrome P450 (CYP) isozymes: ~60%
  Share of hepatic metabolism mediated by other non-CYP enzymes: ~20%
  Share of hepatic metabolism mediated by uridine 5'-diphospho-glucuronosyltransferases: ~20%
